Patent US10167262B2, “Herbicidal substituted 3-arylpyrazoles” (FMC CORPORATION, priority 2014, dated 2019)

Legend:
Assay type in all cases: in vivo
[1] = tested on: large (Lg) crabgrass (Digitaria sanguinalis); assay: Test A pre-/postemergence greenhouse herbicide test, visual injury rating 0-100
Summary of the method: (§1)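 Planting in a loam and sand mixture preceded a directed preemergence soil spray; postemergence spray was applied concurrently to one- to two-leaf plants. After roughly 10 days under glass, injury is scored visually against untreated controls, 0–100.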

[2] = tested on: pigweed (Amaranthus retroflexus); assay: as above
Summary of the method: as §1

[3] = tested on: wheat (Triticum aestivum); assay: as above
Summary of the method: as §1

[4] = tested on: corn (Zea mays); assay: as above
Summary of the method: as §1

[5] = tested on: giant foxtail (Setaria faberii); assay: as above
Summary of the method: as §1

[6] = tested on: velvetleaf (Abutilon theophrasti); assay: as above
Summary of the method: as §1

[7] = tested on: morningglory (Ipomoea spp.); assay: as above
Summary of the method: as §1

[8] = tested on: barnyardgrass (Echinochloa crus-galli); assay: as above
Summary of the method: as §1

[9] = tested on: ducksalad (Heteranthera limosa); assay: Test B flooded paddy test, plant response rating 0-100; conditions: Flood, 250 g ai/ha; scale 0 to 100 (0 no effect, 100 complete control); 13 to 15 days
Summary of the method: (§2)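 Pots were flooded to 3 cm above the soil surface at treatment, compound applied directly to the paddy water, and that depth held throughout. Plants were kept in a greenhouse for 13 to 15 days, then visually rated against untreated controls.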

[10] = tested on: sedge, umbrella (small-flower umbrella sedge, Cyperus difformis); assay: as above; conditions: Flood, 250 g ai/ha; scale 0 to 100 (0 no effect, 100 complete control); 13 to 15 days
Summary of the method: as §2

[11] = tested on: rice (Oryza sativa); assay: as above; conditions: Flood, 250 g ai/ha; scale 0 to 100 (0 no effect, 100 complete control); 13 to 15 days
Summary of the method: as §2

[12] = tested on: barnyardgrass (Echinochloa crus-galli); assay: as above; conditions: Flood, 250 g ai/ha; scale 0 to 100 (0 no effect, 100 complete control); 13 to 15 days
Summary of the method: as §2

O=C(c1ccccc1)c1cn(CC2CC2)nc1-c1cc(Cl)cc(Cl)c1 [Compound 41]
Plant response rating (0 to 100 scale), Crabgrass, Large ([1]; Postemergence, 125 g ai/ha): 0
Plant response rating (0 to 100 scale), Crabgrass, Large ([1]; Postemergence, 500 g ai/ha): 0
Crabgrass, Large plant response rating (0 = no effect, 100 = complete control) ([1]; Preemergence, 125 g ai/ha): 0
Plant response rating (0 to 100 scale), Crabgrass, Large ([1]; Preemergence, 500 g ai/ha): 0
Plant response rating (0 to 100 scale), Pigweed ([2]; Postemergence, 125 g ai/ha): 30
Plant response rating (0 to 100 scale), Pigweed ([2]; Postemergence, 500 g ai/ha): 60
Pigweed plant response rating (0 = no effect, 100 = complete control) ([2]; Preemergence, 125 g ai/ha): 0
Plant response rating (0 to 100 scale), Pigweed ([2]; Preemergence, 500 g ai/ha): 60
Plant response rating (0 to 100 scale), Wheat ([3]; Postemergence, 125 g ai/ha): 0
Plant response rating (0 to 100 scale), Wheat ([3]; Postemergence, 500 g ai/ha): 0
Wheat plant response rating (0 = no effect, 100 = complete control) ([3]; Preemergence, 125 g ai/ha): 0
Plant response rating (0 to 100 scale), Wheat ([3]; Preemergence, 500 g ai/ha): 0
Plant response rating (0 to 100 scale), Corn ([4]; Postemergence, 125 g ai/ha): 0
Plant response rating (0 to 100 scale), Corn ([4]; Postemergence, 500 g ai/ha): 0
Corn plant response rating (0 = no effect, 100 = complete control) ([4]; Preemergence, 125 g ai/ha): 0
Plant response rating (0 to 100 scale), Corn ([4]; Preemergence, 500 g ai/ha): 0
Plant response rating (0 to 100 scale), Foxtail, Giant ([5]; Postemergence, 125 g ai/ha): 0
Plant response rating (0 to 100 scale), Foxtail, Giant ([5]; Postemergence, 500 g ai/ha): 0
Foxtail, Giant plant response rating (0 = no effect, 100 = complete control) ([5]; Preemergence, 125 g ai/ha): 0
Plant response rating (0 to 100 scale), Foxtail, Giant ([5]; Preemergence, 500 g ai/ha): 0
Plant response rating (0 to 100 scale), Velvetleaf ([6]; Postemergence, 125 g ai/ha): 40
Plant response rating (0 to 100 scale), Velvetleaf ([6]; Postemergence, 500 g ai/ha): 80
Velvetleaf plant response rating (0 = no effect, 100 = complete control) ([6]; Preemergence, 125 g ai/ha): 0
Plant response rating (0 to 100 scale), Velvetleaf ([6]; Preemergence, 500 g ai/ha): 60
Plant response rating (0 to 100 scale), Morningglory ([7]; Postemergence, 125 g ai/ha): 0
Plant response rating (0 to 100 scale), Morningglory ([7]; Postemergence, 500 g ai/ha): 0
Morningglory plant response rating (0 = no effect, 100 = complete control) ([7]; Preemergence, 125 g ai/ha): 0
Plant response rating (0 to 100 scale), Morningglory ([7]; Preemergence, 500 g ai/ha): 0
Plant response rating (0 to 100 scale), Barnyardgrass ([8]; Postemergence, 125 g ai/ha): 0
Plant response rating (0 to 100 scale), Barnyardgrass ([8]; Postemergence, 500 g ai/ha): 0
Barnyardgrass plant response rating (0 = no effect, 100 = complete control) ([8]; Preemergence, 125 g ai/ha): 0
Plant response rating (0 to 100 scale), Barnyardgrass ([8]; Preemergence, 500 g ai/ha): 0
Plant response rating, Ducksalad [9]: 0
Plant response rating, Sedge, Umbrella [10]: 30
Plant response rating, Rice [11]: 0
Plant response rating, Barnyardgrass [12]: 0

Fc1cc(Cl)cc(-c2n[nH]cc2C(=NN2CCCC2)c2ccccc2)c1 [Compound 42]
Plant response rating (0 to 100 scale), Crabgrass, Large ([1]; Postemergence, 1000 g ai/ha): 0
Plant response rating (0 to 100 scale), Crabgrass, Large ([1]; Preemergence, 1000 g ai/ha): 0
Plant response rating (0 to 100 scale), Pigweed ([2]; Postemergence, 1000 g ai/ha): 100
Plant response rating (0 to 100 scale), Pigweed ([2]; Preemergence, 1000 g ai/ha): 100
Plant response rating (0 to 100 scale), Wheat ([3]; Postemergence, 1000 g ai/ha): 0
Plant response rating (0 to 100 scale), Wheat ([3]; Preemergence, 1000 g ai/ha): 0
Plant response rating (0 to 100 scale), Corn ([4]; Postemergence, 1000 g ai/ha): 0
Plant response rating (0 to 100 scale), Corn ([4]; Preemergence, 1000 g ai/ha): 0
Plant response rating (0 to 100 scale), Foxtail, Giant ([5]; Postemergence, 1000 g ai/ha): 0
Plant response rating (0 to 100 scale), Foxtail, Giant ([5]; Preemergence, 1000 g ai/ha): 0
Plant response rating (0 to 100 scale), Velvetleaf ([6]; Postemergence, 1000 g ai/ha): 100
Plant response rating (0 to 100 scale), Velvetleaf ([6]; Preemergence, 1000 g ai/ha): 100
Plant response rating (0 to 100 scale), Morningglory ([7]; Postemergence, 1000 g ai/ha): 0
Plant response rating (0 to 100 scale), Morningglory ([7]; Preemergence, 1000 g ai/ha): 0
Plant response rating (0 to 100 scale), Barnyardgrass ([8]; Postemergence, 1000 g ai/ha): 0
Plant response rating (0 to 100 scale), Barnyardgrass ([8]; Preemergence, 1000 g ai/ha): 0
Plant response rating, Ducksalad [9]: 0
Plant response rating, Sedge, Umbrella [10]: 0
Plant response rating, Rice [11]: 0
Plant response rating, Barnyardgrass [12]: 0
